In patent US20110288154A1, “RNA Interference Mediated Inhibition of Epithelial Sodium Channel (ENaC) Gene Expression Using Short Interfering Nucleic Acid (siNA)” (MERCK & CO., INC., priority 2008, published 2011):
pIC50: −log10 of the molar value. [invAb] = inverted abasic unit; m = 2'-O-methyl; r = 2'-OH (RNA); f = 2'-fluoro

System: mSCNN1A mRNA
Assay: Screening of ENaCα siNAs in mouse NIH 3T3 cells (quantitative RT-PCR)
Assay type: cell-based
Set-up: Percent Reduction of the mSCNN1A mRNA relative to a non-targeting control siNA / Mouse % KD (efficacy of ENaCα mRNA knockdown): concentration or dose not given beside the values
Settings: for Mean (mSCNN1A expression normalized to the level of m36B4) / Percent Reduction of the mSCNN1A mRNA relative to a non-targeting control siNA / Avg ENaCα Expression (mSCNN1A) / Avg 36B4 Expression: mouse NIH 3T3 cells, n = 3; for Mean (mSCNN1A expression normalized to the level of m36B4) / Percent Reduction of the mSCNN1A mRNA relative to a non-targeting control siNA / Avg 36B4 Expression: 24 hours post-transfection; for Avg ENaCα Expression (mSCNN1A): harvested 24 hours post-transfection; for Avg 36B4 Expression: housekeeping gene used for normalisation; for pIC50 / Mouse % KD (efficacy of ENaCα mRNA knockdown): mouse cell line; for pIC50: dose response, read-out: Mouse IC50 (potency of ENaCα mRNA knockdown); for Mouse % KD (efficacy of ENaCα mRNA knockdown): summary
Method: siNA constructs (Table 1b) may be tested for efficacy in reducing ENaC RNA expression in, for example, A549 human lung carcinoma cells. A549 (human; ATCC cat# CCL-185) cells were cultured at 37° C. in the presence of 5% CO2 and grown in Ham's F12K medium with 2 mM L-glutamine adjusted to contain 1.5 g/L sodium bicarbonate and supplemented with fetal bovine serum at a final concentration of 10% and 100 U/mL penicillin. The A549 cells were plated approximately 24 hours before transfection in 96-well plates at 7,500 cells/well, 100 μl/well. After 24 hours complexes containing siNA and Lipofectamine 2000 (Invitrogen) were created as follows: a solution of Lipofectamine 2000 in OPTI-MEM was prepared containing Lipofectamine 2000 at a final concentration of 14 μg/ml. In parallel, solutions of the siNAs were prepared in OPTI-MEM at a final concentration of 150 nM. After both solutions were incubated at 20° C. for 20 minutes an equal volume of the siNA solutions and the Lipofectamine 2000 solution were added together for each of the siNAs. The resultant solution has the siNAs at a final concentration of 75 nM and Lipofectamine 2000 at a final concentration of 7 μg/ml. This solution was incubated at 20° C. for 20 minutes. After incubation 50 μl of the solution were added to each of the wells (in triplicate). The final concentration of siNA in each well was 25 nM and the final concentration of Lipofectamine 2000 in each well was 2.33 μg/ml. The plates were incubated for 48 hours with no change of media before harvesting. Dose response curves were determined in a similar manner with each concentration being done in triplicate and maintaining a constant amount of Lipofectamine 2000 in each transfection.
A series of probes and primers were used to detect the various mRNA transcripts of the genes of ENaCa and GAPDH in mouse, rat, and human cell lines. The assays were performed on an ABI 7500 instrument, according to the manufacturer's instructions. Within each experiment, the baseline was set in the exponential phase of the amplification curve, and based on the intersection point of the baselines with the amplification curve, a Ct value was assigned by the instrument. This Ct value was then assigned a QTY value based on the Standard Curve. The standard curve in the various experiments herein used 1 ng to 300 ng of RNA extracted from the same cell line used for the experimental transfections.
All IC50 values were calculated from the data using GraphPad Prizm software, specifically a sigmoidal, variable slope curve for simple ligand binding. Also, unless otherwise indicated, all calculations of the efficacy and potency (e.g., % knockdown) of the siNAs were done relative to a non-targeting control siNA. If reported, P-values were computed using The Students t-test, including the Welch Correction for unequal variances.
In all of the calculations of the % knock-down of mRNA, the calculation was made relative to the normalized level of expression of the gene of interest in the samples treated with the non-targeting control (NTC) unless otherwise indicated. The gene of interest expression level was divided by the level of expression of GAPDH or 36B4 (depending on the species) in each sample. The three replicates for each condition in each experiment were averaged and the standard deviation of those samples was calculated. The following formula was then used to calculate the % of knock-down of the gene of interest:
The ENaCα siNAs were designed and synthesized as described previously. The siNAs were screened in three cell lines. Human A549 cells, mouse NIH 3T3 and Rat H-4-II-E cells. The data from the screen of ENaCa siNAs in all three species is shown in Tables 3a, 3b, 4a, 4b, 5a, and 5b and a summary of the data for certain siNA molecules is presented in Table 6. Each screen was performed at 24 hrs. The decision to use this time point was based upon the degree of knockdown of the mRNA seen at that time point.

| Substance | Mean (mSCNN1A expression normalized to the level of m36B4) | Percent Reduction of the mSCNN1A mRNA relative to a non-targeting control siNA | Avg ENaCα Expression (mSCNN1A) | Avg 36B4 Expression | pIC50 | Mouse % KD (efficacy of ENaCα mRNA knockdown) |
| --- | --- | --- | --- | --- | --- | --- |
| B cccuGcuGuccAcAGuGAc TTB / GUCAcuGuGGAcAGcAGGGUU (sense CCCUGCUGUCCACAGUGACTT; antisense GUCACUGUGGACAGCAGGGUU; siRNA; sense: DNA at AGT, 2'-fluoro at CU, [invAb] at 5' end, 3' end, backbone not given here; antisense: sugars from the 5' end rrrmffmfmmmfmmfmmmmmm, backbone not given here) [Site 1121] | 0.27 | −14.5% | 3.39 | 11.45 | – | – |
| B cuGuGcAAccAGAAcAAAu TTB / AUUuGuucuGGuuGcAcAGUU (chain 1 CUGUGCAACCAGAACAAAUTT; chain 2 AUUUGUUCUGGUUGCACAGUU; siRNA; chain 1: DNA at AGT, 2'-fluoro at CU, [invAb] at 5' end, 3' end, backbone not given here; chain 2: sugars from the 5' end rrrfmffffmmffmfmfmmmm, backbone not given here) [Site 781] | 0.22 | 9.8% | 3.50 | 16.49 | – | – |
| B cuccuGuccAAccuGGGcA TTB / UGCccAGGuuGGAcAGGAGUU (sense CUCCUGUCCAACCUGGGCATT; antisense UGCCCAGGUUGGACAGGAGUU; siRNA; sense: DNA at AGT, 2'-fluoro at CU, [invAb] at 5' end, 3' end, backbone not given here; antisense: sugars from the 5' end rrrffmmmffmmmfmmmmmmm, backbone not given here) [Site 1738] | 0.13 | 5.1% | 2.63 | 20.59 | – | – |
| B uGGGcAGccAGuGGAGccu TTB / AGGcuccAcuGGcuGcccAUU (sense UGGGCAGCCAGUGGAGCCUTT; antisense AGGCUCCACUGGCUGCCCAUU; siRNA; sense: DNA at AGT, 2'-fluoro at CU, [invAb] at 5' end, 3' end, backbone not given here; antisense: sugars from the 5' end rrrffffmffmmffmfffmmm, backbone not given here) [Site 1751] | 0.10 | 27.6% | 2.85 | 28.97 | – | – |
| B uGGcuGuGccuAcAucuuc TTB / GAAGAuGuAGGcAcAGccAUU (sense UGGCUGUGCCUACAUCUUCTT; antisense GAAGAUGUAGGCACAGCCAUU; siRNA; sense: DNA at AGT, 2'-fluoro at CU, [invAb] at 5' end, 3' end, backbone not given here; antisense: sugars from the 5' end rrrmmfmfmmmfmfmmffmmm, backbone not given here) [Site 1386] | 0.09 | 31.9% | 2.35 | 25.00 | – | – |
| B uGuGGcuGuGccuAcAucu TTB / AGAuGuAGGcAcAGccAcAUU (sense UGUGGCUGUGCCUACAUCUTT; antisense AGAUGUAGGCACAGCCACAUU; siRNA; sense: DNA at AGT, 2'-fluoro at CU, [invAb] at 5' end, 3' end, backbone not given here; antisense: sugars from the 5' end rrrfmfmmmfmfmmffmfmmm, backbone not given here) [Site 1384] | 0.14 | −0.1% | 3.11 | 20.56 | – | – |
| B uGuGcAAccAGAAcAAAuc TTB / GAUuuGuucuGGuuGcAcAUU (chain 1 UGUGCAACCAGAACAAAUCTT; chain 2 GAUUUGUUCUGGUUGCACAUU; siRNA; B caps on sense ends, letter-case modifications not given here, further chemistry not given here) [Site 782] | 0.05 | 78.2% | 0.85 | 16.72 | 8.41 | 78% |
| B uGuccAAccuGGGcAGccA TTB / UGGcuGcccAGGuuGGAcAUU (sense UGUCCAACCUGGGCAGCCATT; antisense UGGCUGCCCAGGUUGGACAUU; siRNA; sense: DNA at AGT, 2'-fluoro at CU, [invAb] at 5' end, 3' end, backbone not given here; antisense: sugars from the 5' end rrrffmfffmmmffmmmfmmm, backbone not given here) [Site 1742] | 0.14 | 1.0% | 2.91 | 21.48 | – | – |
| B uccuGuccAAccuGGGcAG TTB / CUGcccAGGuuGGAcAGGAUU (sense UCCUGUCCAACCUGGGCAGTT; antisense CUGCCCAGGUUGGACAGGAUU; siRNA; sense: DNA at AGT, 2'-fluoro at CU, [invAb] at 5' end, 3' end, backbone not given here; antisense: sugars from the 5' end rrrfffmmmffmmmfmmmmmm, backbone not given here) [Site 1739] | 0.13 | 7.3% | 2.87 | 22.65 | – | – |
| B uuAuGGAuGAuGGuGGcuu TTB / AAGccAccAucAuccAuAAUU (sense UUAUGGAUGAUGGUGGCUUTT; antisense AAGCCACCAUCAUCCAUAAUU; siRNA; B caps on sense ends, letter-case modifications not given here, further chemistry not given here) [Site 1181] | 0.04 | 84.4% | 0.54 | 15.48 | 8.39 | 84% |
